Source: patent US20240025922A1, “TETRAHYDROPYRIDO[3,4-d]PYRIMIDINES AS HPK1 INHIBITORS” (Merck Patent GmbH, priority 2022, published 2024)
Where two headings read alike, the source gives them in different places.

What was measured:
[1] = molecular target: full-length human HPK1 (MAP4K1) (Homo sapiens (Human), UniProt Q92918); test: HPK1 Kinase Assay (Biochemical Assay), ADP-Glo; conditions: GST-HPK1 3.2 nM, 10 μM ATP, MBP substrate, read-out: HPK1 enzymatic IC50
How it was run: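 ADP-Glo luminescence after a 120-min kinase reaction gave percent inhibition and IC50. The enzyme was Sf21-expressed N-terminal GST full-length human HPK1 at 3.2 nM in HEPES pH 7.5 buffer with MgCl2, DTT, Brij-35 and BSA.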

[2] = molecular target: HPK1 (SLP76 phosphorylation at Ser376 in Jurkat and EL-4 cells) (Homo sapiens, UniProt Q92918); type: cell-based
How it was run: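 Phospho-SLP76 (Ser376) in lysates measured by AlphaLISA for human Jurkat and by 19 h HTRF for mouse EL-4, giving % inhibition and IC50. Compounds applied 60 min before αCD3/αCD28 bead stimulation at 37 °C, lasting 15 min (Jurkat) or 30 min (EL-4).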

[3] = αCD3/αCD28 Dynabeads stimulated cells, pSLP76 (Ser376) detection; read-out: HPK1 pSLP76 IC50

HPK1 (SLP76 phosphorylation at Ser376 in Jurkat and EL-4 cells), sequence (Q92918 whole entry, looked up): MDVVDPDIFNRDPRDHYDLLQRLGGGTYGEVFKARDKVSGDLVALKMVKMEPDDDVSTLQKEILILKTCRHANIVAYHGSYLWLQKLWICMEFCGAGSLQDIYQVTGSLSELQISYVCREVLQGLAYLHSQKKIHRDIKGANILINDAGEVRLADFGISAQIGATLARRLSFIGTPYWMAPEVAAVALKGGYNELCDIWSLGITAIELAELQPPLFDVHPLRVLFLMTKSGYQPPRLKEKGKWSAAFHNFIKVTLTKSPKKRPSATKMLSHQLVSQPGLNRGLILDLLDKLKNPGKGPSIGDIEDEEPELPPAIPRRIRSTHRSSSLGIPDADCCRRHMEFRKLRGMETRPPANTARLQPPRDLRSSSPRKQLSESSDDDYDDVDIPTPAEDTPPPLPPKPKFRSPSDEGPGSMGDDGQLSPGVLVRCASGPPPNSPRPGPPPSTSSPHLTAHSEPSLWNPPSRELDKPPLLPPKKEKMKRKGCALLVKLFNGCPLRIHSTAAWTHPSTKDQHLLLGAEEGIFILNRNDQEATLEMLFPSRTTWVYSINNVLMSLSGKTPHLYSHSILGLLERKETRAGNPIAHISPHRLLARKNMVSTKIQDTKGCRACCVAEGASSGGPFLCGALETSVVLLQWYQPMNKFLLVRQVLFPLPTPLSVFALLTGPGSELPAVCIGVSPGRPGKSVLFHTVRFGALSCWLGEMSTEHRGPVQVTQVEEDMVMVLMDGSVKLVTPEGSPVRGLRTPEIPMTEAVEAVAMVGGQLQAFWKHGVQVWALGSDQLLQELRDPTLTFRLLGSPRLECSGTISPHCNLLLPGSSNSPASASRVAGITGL
full-length human HPK1 (MAP4K1), sequence (Q92918 whole entry): as the sequence (Q92918 whole entry, looked up) above

Row | IC50 [1] | IC50 [2, 3] | Structure (SMILES) | IC50 ([2]; read-out: HPK1 pSLP76 IC50; αCD3/αCD28 Dynabeads stimulated cells, pSLP76 (Ser376) detection)
1 | < 0.1 µM | 0.5 to 1 µM | Cc1c(N2CCc3cnc(Nc4cnc5c(c4)CC(O)CC5)nc3C2)cnc2c1NCCO2 (stereo not shown) [Example 110, 3-((7-(8-methyl-2,3-dihydro-1H-pyrido[2,3-b][1,4]oxazin-7-yl)-5,6,7,8-tetrahydropyrido[3,4-d]pyrimidin-2-yl)amino)-5,6,7,8-tetrahydroquinolin-6-ol] | 
2 | < 0.1 µM | < 0.5 µM | Cc1cc(Nc2cc3c(cn2)CCN(c2cnc4c(c2C)NCCO4)C3)ccc1NC(=O)CN1CCOCC1 [Example 34, N-{2-methyl-4-[(6-{8-methyl-1H,2H,3H-pyrido[2,3-b][1,4]oxazin-7-yl}-5,6,7,8-tetrahydro-2,6-naphthyridin-3-yl)amino]phenyl}-2-(morpholin-4-yl)acetamide] | 
3 | < 0.1 µM | < 0.5 µM | Cc1cc(Nc2cc3c(cn2)CCN(c2cnc4c(c2C)NCCO4)C3)ccc1NC(=O)CN1CCC1 [Example 9, 2-(azetidin-1-yl)-N-{2-methyl-4-[(6-{8-methyl-1H,2H,3H-pyrido[2,3-b][1,4]oxazin-7-yl}-5,6,7,8-tetrahydro-2,6-naphthyridin-3-yl)amino]phenyl}acetamide] | 
4 | < 0.1 µM | > 1 µM | Cc1cc(Nc2cc3c(cn2)CCN(c2cnc4c(c2C)NCCO4)C3)ccc1NC(=O)CN(C)C [Example 33, 2-(dimethylamino)-N-{2-methyl-4-[(6-{8-methyl-1H,2H,3H-pyrido[2,3-b][1,4]oxazin-7-yl}-5,6,7,8-tetrahydro-2,6-naphthyridin-3-yl)amino]phenyl}acetamide] | 
5 | < 0.1 µM | < 0.5 µM | Cc1c(N2CCc3cnc(Nc4ccc(Cn5cncn5)cc4)cc3C2)cnc2c1NCCO2 [Example 144, 6-{8-methyl-1H,2H,3H-pyrido[2,3-b][1,4]oxazin-7-yl}-N-{4-[(1H-1,2,4-triazol-1-yl)methyl]phenyl}-5,6,7,8-tetrahydro-2,6-naphthyridin-3-amine] | 
6 | < 0.1 µM | < 0.5 µM | Cc1cc(Nc2ncc3c(n2)CN(c2cnc4c(c2C)NCCO4)CC3)ccc1C(=O)NCCN1CCOCC1 [Example 39, 2-methyl-4-[(7-{8-methyl-1H,2H,3H-pyrido[2,3-b]oxazin-7-yl}-5H,6H,7H,8H-pyrido[3,4-d]pyrimidin-2-yl)amino]-N-[2-(morpholin-4-yl)ethyl] benzamide] | 
7 | < 0.1 µM | < 0.5 µM | Cc1c(N2CCc3cnc(Nc4ccc([C@H](C)S(C)(=O)=O)cc4)nc3C2)cnc2c1NCCO2 (single isomer, unassigned) [Example 157] | 
8 | < 0.1 µM | < 0.5 µM | Cc1c(N2CCc3cnc(Nc4ccc([C@@H]5CCCS5(=O)=O)cc4)cc3C2)cnc2c1NCCO2 (single isomer, unassigned) [Example 170] | 
9 | < 0.1 µM | < 0.5 µM | Cc1c(N2CCc3cnc(Nc4ccc(CS(=O)(=O)C5CC5)nc4)nc3C2)cnc2c1NCCO2 [Example 40, 6-[(cyclopropanesulfonyl)methyl]-N-(7-{8-methyl-1H,2H,3H-pyrido[2,3-b][1,4]oxazin-7-yl}-5H,6H,7H,8H-pyrido[3,4-d]pyrimidin-2-yl) pyridin-3-amine] | 
10 | < 0.1 µM | < 0.5 µM | Cc1c(N2CCc3cnc(Nc4ccc(CC(=O)N5CC(F)(F)C5)cc4)nc3C2)cnc2c1NCCO2 [Example 151, 1-(3,3-difluoroazetidin-1-yl)-2-{4-[(7-{8-methyl-1H,2H,3H-pyrido[2,3-b][1,4]oxazin-7-yl}-5H,6H,7H,8H-pyrido[3,4-d]pyrimidin-2-yl)amino]phenyl}ethan-1-one] | 
11 | < 0.1 µM | > 1 µM | Cc1c(N2CCc3cnc(Nc4ccc(NC(=O)CN5CCOCC5)nc4)cc3C2)cnc2c1NCCO2 [Example 32, N-{5-[(6-{8-methyl-1H,2H,3H-pyrido[2,3-b][1,4]oxazin-7-yl}-5,6,7,8-tetrahydro-2,6-naphthyridin-3-yl)amino]pyridin-2-yl}-2-(morpholin-4-yl)acetamide] | 
12 | < 0.1 µM | < 0.5 µM | Cc1c(N2CCc3cnc(Nc4ccc(Cn5ccnn5)cc4)nc3C2)cnc2c1NCCO2 [Example 183, 7-{8-methyl-1H,2H,3H-pyrido[2,3-b][1,4]oxazin-7-yl}-N-{4-[(1H-1,2,3-triazol-1-yl)methyl]phenyl}-5H,6H,7H,8H-pyrido[3,4-d]pyrimidin-2-amine] | 
13 | 0.1 to 1 µM | > 1 µM | Cc1c(N2CCc3cnc(Nc4cnc5c(c4)CN(C)CC5)cc3C2)cnc2c1NCCO2 [Example 109, 6-methyl-N-(6-(8-methyl-2,3-dihydro-1H-pyrido[2,3-b][1,4]oxazin-7-yl)-5,6,7,8-tetrahydro-2,6-naphthyridin-3-yl)-5,6,7,8-tetrahydro-1,6-naphthyridin-3-amine] | 
14 | < 0.1 µM | < 0.5 µM | Cc1c(N2CCc3cnc(Nc4ccc(CS(=O)(=O)C5CC5)cn4)cc3C2)cnc2c1NCCO2 [Example 176, N-{5-[(cyclopropanesulfonyl)methyl]pyridin-2-yl}-6-{8-methyl-1H,2H,3H-pyrido[2,3-b][1,4]oxazin-7-yl}-5,6,7,8-tetrahydro-2,6-naphthyridin-3-amine] | 
15 | < 0.1 µM | > 1 µM | Cc1c(N)cncc1N1CCc2cnc(Nc3cnc4c(c3)CN(C)CC4)nc2C1 [Example 116, 7-(5-amino-4-methylpyridin-3-yl)-N-(6-methyl-5,6,7,8-tetrahydro-1,6-naphthyridin-3-yl)-5,6,7,8-tetrahydropyrido[3,4-d]pyrimidin-2-amine] | 
16 | < 0.1 µM | < 0.5 µM | Cc1c(N2CCc3cnc(Nc4ccc(NCCN5CCOCC5)c(F)c4)nc3C2)cnc2c1NCCO2 [Example 6, 2-fluoro-N4-(7-{8-methyl-1H,2H,3H-pyrido[2,3-b][1,4]oxazin-7-yl}-5H,6H,7H,8H-pyrido[3,4-d]pyrimidin-2-yl)-N1-[2-(morpholin-4-yl)ethyl]benzene-1,4-diamine] | 
17 | < 0.1 µM | < 0.5 µM | Cc1c(N2CCc3cnc(Nc4ccc(CS(C)(=O)=O)cc4)nc3C2)cnc2c(F)c[nH]c12 [Example 138, 7-{3-fluoro-7-methyl-1H-pyrrolo[3,2-b]pyridin-6-yl}-N-[4-(methanesulfonylmethyl)phenyl]-5H,6H,7H,8H-pyrido[3,4-d]pyrimidin-2-amine] | 
18 | < 0.1 µM | < 0.5 µM | Cc1c(N2CCc3cnc(Nc4ccc(C(C)(C)C#N)cc4)nc3C2)cnc2c1NCCO2 [Example 182, 2-methyl-2-(4-((7-(8-methyl-2,3-dihydro-1H-pyrido[2,3-b][1,4]oxazin-7-yl)-5,6,7,8-tetrahydropyrido[3,4-d]pyrimidin-2-yl)amino)phenyl)propanenitrile] | 

Row | Structure (SMILES) | IC50 [1] | IC50 [2, 3] | IC50 ([2]; read-out: HPK1 pSLP76 IC50; αCD3/αCD28 Dynabeads stimulated cells, pSLP76 (Ser376) detection)
19 | Cc1c(N2CCc3cnc(Nc4ccc(OC5CCOCC5)cc4)nc3C2)cnc2c1NCCO2 [Example 94, 7-(8-methyl-2,3-dihydro-1H-pyrido[2,3-b][1,4]oxazin-7-yl)-N-(4-((tetrahydro-2H-pyran-4-yl)oxy)phenyl)-5,6,7,8-tetrahydropyrido[3,4-d]pyrimidin-2-amine] | < 0.1 µM |  | 0.5 to 1 µM
20 | Cc1c(N2CCc3cnc(Nc4ccc(CS(C)(=O)=O)cc4)nc3C2)cnc2c1NCCO2 [Example 69, N-[4-(methanesulfonylmethyl)phenyl]-7-{8-methyl-1H,2H,3H-pyrido[2,3-b][1,4]oxazin-7-yl}-5H,6H,7H,8H-pyrido[3,4-d]pyrimidin-2-amine] | < 0.1 µM | < 0.5 µM | 
